The text below walks through data of US20230130066A1, “USE OF CYCLODEXTRINS IN DISEASES AND DISORDERS INVOLVING PHOSPHOLIPID DYSREGULATION” (priority 2017, published 2023).

Where “and” joins values, the source holds several entries; their conditions need not be identical. Identical values can stand only once. Like-named read-outs stand apart in the source and are kept apart here.

Data set [1] has as its system MDA-MB-231 cells. Kind of data set: Wound healing / gap closure migration assay, MDA-MB-231. The class given is cell-based, human. The settings on record: 2 h treatment; for wound closure, replications r1-r3: listed as HPbCD. The procedure: Published results have shown that β-CD inhibits human MDA-MB 231 cell migration. See Translational Medicine Communications, 1 (1), 3. This inhibition was attributed to the ability of β-CD to “deplete cholesterol”. β-CD, however, depletes also phospholipids.
(§1) Cells were cultured in 24-well culture plates (Cytoselect CBA-120, 0.9 mm wound healing/gap closure migration assay) for 24 h with wound healing insert in place.
(§2) Protocol: Warm up the 24-well plate (CBA-120, Cell BioLabs Inc.) with 0.9 mm CytoSelect Wound Healing Inserts at room temperature for 10 minutes. Using sterile forceps, orient the desired number of inserts in the plate wells with their “wound field” aligned in the same direction. Create a cell suspension containing 0.5-1.0×10^6 cells/ml in media containing 10% fetal bovine serum (FBS). Add 500 μL of cell suspension to each well by carefully inserting the pipette tip through the open end at the top of the insert. For optimal cell dispersion, add 250 μL of cell suspension to either side of the open ends at the top of the insert. Incubate cells in a cell culture incubator for 12-24 hours. Carefully remove the insert from the well to begin the wound healing assay. Use sterile forceps to grab and lift the insert slowly from the plate well. Slowly aspirate and discard the media from the wells. Wash wells with media to remove dead cells and debris. Finally, add media to wells to keep cells hydrated. Repeat wash if wells still have debris or unattached cells. When washing is complete, add media with FBS and/or compounds to continue cell culture and wound healing process. Agents that inhibit or stimulate cell migration can be added directly to the wells. Incubate cells in a cell culture incubator (2 hours) and then wash cells with PBS and then add fresh media without compounds. Incubate 12-24 hours before wash and fixing. Remove the fixation solution and add 400 μL of Cell Stain Solution to each well. Allow the stain to incubate with the cells for 15 minutes at room temperature. Aspirate and discard the solution. Carefully wash each stained well 3× with deionized water. Discard washes and allow cells to dry at room temperature. Cells that migrated into the wounded area or protruded from the border of the wound were visualized and photographed under an inverted microscope. Determine the surface area of the defined wound area: Total Surface Area=0.9 mm x length. Determine the surface area of the migrated cells into the wound area: Migrated Cell Surface Area=length of cell migration (mm)×2×length. Percent Closure (%)=Migrated Cell Surface Area/Total Surface Area x 100.

Data set [2] relates to unesterified cholesterol (UC) storage. The settings on record: 3-week-old Npc1-/- mice, dorsal neocortex, filipin; cited from earlier work.
For data set [3] the following is noted: Table 3; cited from earlier work.
For data set [4], the system named is cats. Particulars: doses of 4-8 g/kg; cited from earlier work.
Data set [5] has as its system a-syn aggregates. The settings on record: neuroglioma cells, via autophagy; cited from earlier work.
Data set [6] has as its system BBB. The settings on record: cited from earlier work; for Transport across BBB: 2 h, 1 mM.
The conditions of data set [7]: rats, suppositories containing triglycerides (Witepsol H5); cited from earlier work.
Data set [8] concerns Tg19959 mice. The settings on record: four months subcutaneous; cited from earlier work.
The conditions of data set [9]: cited from earlier work.
For data set [10] the following is noted: mice, cats, and one human; cited from earlier work.
In data set [11] the test system is Tg19959 mice. Particulars: four months subcutaneous; cited from earlier work. This is another data set of the same source.
For data set [12] the following is noted: cited from earlier work. This is another data set of the same source.
For data set [13] the following is noted: cited from earlier work. This is another data set of the same source.
The subject of data set [14] is membrane cholesterol. The settings on record: SwN2a cells; cited from earlier work.
Data set [15] relates to leukemia. The settings on record: leukemia mouse models; cited from earlier work.
Data set [16] has as its system MCF-7 cells. Kind of data set: Wound healing / gap closure migration assay, MCF-7. The settings on record: 2 h treatment; for wound closure, replications r1-r3: listed as HPbCD. It is filed as cell-based, human. The procedure:
as §1, §2

Data set [17] relates to human keratinocytes. Particulars: cited from earlier work.
The subject of data set [18] is HeLa/TFEB cells. Particulars: cited from earlier work.
The conditions of data set [19]: in vivo; cited from earlier work.
Data set [20] concerns BBB. Particulars: cited from earlier work.
In data set [21] the test system is rats. Particulars: cited from earlier work.
In data set [22] the test system is LINCL fibroblasts. The settings on record: dose- and time-dependent; cited from earlier work.
Data set [23] deals with Aβ42. Particulars: SwN2a cells; persistent for 24 h after withdrawal; cited from earlier work.
The test system of data set [24] is rats. The settings on record: cited from earlier work. This is another data set of the same source.
Data set [25] concerns Caco-2 monolayers. The settings on record: cited from earlier work; for equally effective concentration on paracellular permeability: after 40 min.
For data set [26] the following is noted: mice with spinobulbar muscular atrophy (SBMA); cited from earlier work.
Data set [27] relates to rats. The settings on record: […] daily; cited from earlier work.
Data set [28] has as its system transferrin endocytosis. Particulars: 10 mM; cited from earlier work.
Data set [29] concerns erythrocytes. The settings on record: cited from earlier work.
In data set [30] the test system is NPC cells. The settings on record: cited from earlier work.
Data set [31] relates to Aβ1-40/42. The settings on record: rats, stereotactical injection into the hippocampus; cited from earlier work.
Data set [32] has as its system Caco-2 cells. Particulars: cited from earlier work.

Turning to “2-hydroxypropyl-β-cyclodextrin [HP-β-CD]”, the “average wound closure (avg)” value in data set [1] (MDA-MB-231, 1 mM) stood at 67.67%; in data set [1] (MDA-MB-231, 2 mM) it was 56.00%; in [1] (MDA-MB-231, 4 mM), 39.00%; in [16] (MCF-7, 1 mM) it was 73.33%; in [16] (MCF-7, 2 mM), 48.33%; in data set [16] (MCF-7, 4 mM) it was 33.67%. The “wound closure, replications r1-r3” value was 62.00% and 68.00% and 73.00% in data set [1] (MDA-MB-231, 1 mM); 48.00% and 59.00% and 61.00% in [1] (MDA-MB-231, 2 mM); 48.00% and 44.00% and 25.00% in data set [1] (MDA-MB-231, 4 mM); 68.00% and 74.00% and 78.00% in [16] (MCF-7, 1 mM); 41.00% and 48.00% and 56.00% in [16] (MCF-7, 2 mM); 32.00% and 28.00% and 41.00% in data set [16] (MCF-7, 4 mM). The “UC storage in brain cells” value in data set [2] is listed as “highly effective reduction”. In data set [3], the Solubility in water was above 600 mg/mL. Besides, the figures for the ototoxicity entry in [4] and in data set [10] were “permanent hearing loss” and “risk of causing permanent hearing loss”, respectively. The a-syn aggregates result in data set [5] is on record as “promoted clearance”. The “Transport across BBB” value in data set [6] is 9.3%. Further, the “absorption, administered rectally” value in [7] was 26%. Further, the Aβ plaque deposition result in data set [8] is given as “diminished”. For the same molecule, the “tau immunoreactive dystrophic neurites (DN)” value in data set [8] is given as “reduced”. In addition, the tolerability entry in [9] (children with NPC, doses of up to 1000 mg/kg/d) was “well tolerated”. The side effects entry in data set [9] (two children with NPC, about 2500 mg/kg bi-weekly (≈700 mg/kg/d), over a year) is reported as “no discernable side effects”. In data set [11], the “spatial learning and memory deficits” value is listed as “significantly improved”. The “bone mineral density (BMD)” value in data set [12] (long-term parenteral administration, 200 mg/kg) is recorded as “decrease bone mineral density”. Besides, the “oral absorption in rats” value in [13] is recorded as at most 3%. Also, the “level of membrane cholesterol” value in data set [14] is listed as “reduced”. In [15], the survival result is on record as “prolonged survival”. Also, the apoptotic cell death result in data set [17] (human keratinocytes) is “not apoptotic”. In addition, the “expression of LC3, SQSTM1/p62 and BECN1” value in data set [18] is recorded as “up-regulated”. Besides, the “half-life (t1/2)” value in data set [19] was 1.7 to 1.9 h. The “vol. of distribution (VD)” value in data set [19] is 0.2 L/kg. Moreover, in data set [20], the BBB breakdown is given as 2.5 mM. For the same molecule, the “toxicity on BBB in vitro” value in data set [20] is on record as “similar”. Also, the “effect of 1 g/kg in rats” value in data set [21] was “did not cause adverse clinical signs”. Moreover, in data set [22], the ceroid lipopigment entry is reported as “clearance of ceroid lipopigment”. Further, the “levels of Aβ42” value in [23] is recorded as “dramatically lowered”. Besides, the “acute i.v. toxicity in rats” value in data set [24] is given as 10 g/kg.
Regarding `CCCCCCCCCC(=O)O` [C10, Capric acid], in data set [25], the “equally effective concentration on paracellular permeability” value is reported as 13 mM.
In the case of `CCCCCCCCCCCC(=O)O` [C12, lauric acid], in data set [25] (Caco-2 monolayers), the tight junction morphology result is “did not induce detectable changes”. The “equally effective concentration on paracellular permeability” value in data set [25] is listed as 0.75 mM.
For `CN1CCCC1c1cccnc1` (stereo not drawn) [nicotine], the “transported through the BBB” value in data set [6] (in vitro, after 2 h of incubation) is recorded as 96%.
Consider `C[C@@]12C[C@@]3(O)O[C@@H](O1)[C@]1(COC(=O)c4ccccc4)[C@H]3C[C@@]12O[C@@H]1O[C@H](CO)[C@@H](O)[C@H](O)[C@H]1O` [paeoniflorin], for which the disease phenotype entry in data set [26] was “mitigates the disease phenotype”.
Regarding `OC[C@H]1O[C@@H]2O[C@H]3[C@H](O)[C@@H](O)[C@@H](O[C@H]4[C@H](O)[C@@H](O)[C@@H](O[C@H]5[C@H](O)[C@@H](O)[C@@H](O[C@H]6[C@H](O)[C@@H](O)[C@@H](O[C@H]7[C@H](O)[C@@H](O)[C@@H](O[C@H]8[C@H](O)[C@@H](O)[C@@H](O[C@H]1[C@H](O)[C@H]2O)O[C@@H]8CO)O[C@@H]7CO)O[C@@H]6CO)O[C@@H]5CO)O[C@@H]4CO)O[C@@H]3CO` [β-CD, beta-cyclodextrin], the “deaths, daily doses s.c.” value in data set [27] was “no deaths”. The “Transport across BBB” value in data set [6] was 26.7%. For the same molecule, the “reduction of transferrin endocytosis” value in data set [28] is listed as 80%. Moreover, the cholesterol released in [29] (10 mM) is given as 95%. Further, in data set [29] (erythrocytes), the extraction of cholesterol entry was “most effectively”. For the same molecule, in [17], the apoptotic cell death entry is listed as “induces caspase-dependent apoptotic cell death”. The cholesterol accumulation result in data set [30] is recorded as “can reduce cholesterol accumulation”. Besides, in data set [20], the BBB breakdown was 2.5 mM and the “toxicity on BBB in vitro” value is “similar”. Also, the “Toxicity of Aβ1-40/42” value in data set [31] is reported as “reduced”. Besides, the “acute i.v. toxicity in rats” value in data set [24] is on record as 1 g/kg.
`OC[C@H]1O[C@@H]2O[C@H]3[C@H](O)[C@@H](O)[C@@H](O[C@H]4[C@H](O)[C@@H](O)[C@@H](O[C@H]5[C@H](O)[C@@H](O)[C@@H](O[C@H]6[C@H](O)[C@@H](O)[C@@H](O[C@H]7[C@H](O)[C@@H](O)[C@@H](O[C@H]8[C@H](O)[C@@H](O)[C@@H](O[C@H]9[C@H](O)[C@@H](O)[C@@H](O[C@H]1[C@H](O)[C@H]2O)O[C@@H]9CO)O[C@@H]8CO)O[C@@H]7CO)O[C@@H]6CO)O[C@@H]5CO)O[C@@H]4CO)O[C@@H]3CO` [γ-CD, gamma-cyclodextrin]: the cholesterol accumulation result in data set [30] is “can reduce cholesterol accumulation”.
Take alendronate-β-CD [ALN-β-CD]: the effect on bone entry in data set [12] (rat, in vivo) is given as “bone-anabolic”.
Turning to maltosyl-α-CD, in data set [32], the cytotoxicity entry is listed as “less cytotoxic than α-CD”.
